Tested on: Mamu-A1*007:01
Type: binding, Macaca mulatta
Conditions: Table 4; for Relative binding (WT): binding relative to the WT epitope

Row | Sequence | Relative binding (WT) | Fold decrease (fold decrease of binding affinity versus WT epitope)
1 | SQGIRQILFL [Peptide 3408.0014] | 0.0035 | 
2 | NYIYDRHGDTL [Peptide 3408.0007] | <0.000003 | >350000
3 | YHSNVKEL | 1.0 | 
